Test results: PubChem BioAssay AID2060604 (Molecular Pharmacology Branch, DTP, NCI, 2025)

System: 379773-124-R-J2-PDC complex spheroids, viability % test/control
Experiment: Anticancer human tumor 379773-124-R-J2-PDC patient-derived endometrial carcinoma cell line growth inhibition [CLK]
Settings: for IC50: curve of first compound; for viability, T/C: stronger effect = lower value
Excerpt: A high-throughput screen of multi-cell type tumor spheroids was designed to identify active combinations of […] and targeted small molecules. Complex spheroids include a stromal component modeled by human endothelial cells (HUVEC) and fibroblasts modeled by human mesenchymal stem cells (MSCs). The concentration ranges selected for each drug and investigational agent were based upon clinically achievable concentrations if the clinical Cmax of the agent was known.
Compounds. The drugs and investigational agents: cirtuvivint (SM08502; NSC835563), CC-671 (NSC850746), vemurafenib (NSC761431), tapotoclax (NSC804041), sotorasib (NSC818433), adagrasib (NSC831453), MRTX-1133 (NSC836407), BAY2416964 (NSC825713), copanlisib (NSC816437), inavolisib (NSC800729), abemaciclib (NSC768073), osimertinib (NSC779217), entinostat (NSC756642), eltanexor (KPT-8602, NSC794443), venetoclax (NSC766270), ceralasertib (NSC777638), bortezomib (NSC756655), olaparib (NSC753686), talazoparib (NSC767125), alisertib (NSC759677), peposertib (NSC802822), gemcitabine (NSC613327), 5-fluorouracil (NSC19893), SN-38 (NSC673596), oxaliplatin (NSC266046), paclitaxel (NSC125973), and doxorubicin (NSC123127), were obtained from the National Cancer Institute (NCI) Developmental Therapeutics Program Chemical Repository. The FDA-approved anticancer drug set is available from the Developmental Therapeutics Program at https://dtp.cancer.gov/organization/dscb/obtaining/available plates.htm. […] The stock solutions were prepared in dimethyl sulfoxide (DMSO, Sigma-Aldrich, St. Louis, MO, cat. D2650), except for the platinum complexes which were prepared in saline (Quality Biological, Gaithersburg, MD, cat. 114-055-101), at 800-fold the tested concentration and stored at -70 degrees C prior to their use. All drugs and investigational agents were tested over a range starting from a high concentration at or near the clinical Cmax and decreasing in half-log increments. If the clinical Cmax for an agent had not been determined, the highest concentration tested was 10 microM.
Cell Culture. All cells were maintained in an incubator at 37 degrees C and 5% CO2 with 95% humidity. The PDC lines were cultured according to standard operating procedures established by the NCI PDMR. Briefly, all PDCs were thawed and cultured in Matrigel-coated flasks prepared with a working solution of 1X Ham's F-12 nutrient mix, without supplementation (Invitrogen, Waltham, MA, cat. 11765054), 100 U/mL penicillin-streptomycin (Invitrogen, cat. 15140122), and 2.5% Matrigel (Corning Inc., Corning, NY, cat. 354248) for the first three passages. The 947758-054-R-J2-PDC line was cultured in 6B/Colon 1A media, which includes advanced DMEM/F-12 (Thermo Fisher Scientific, cat. 12634028), 10 mM HEPES (Thermo Fisher Scientific, cat. 15630080), 1X GlutaMAX supplement (Thermo Fisher Scientific, cat. 35050061), 0.1 mg/mL primocin (InvivoGen, cat. ant-pm-2), 10% defined fetal bovine serum, heat inactivated (HyClone Laboratories Inc., cat. SH30070.03HI), 1.25 mM N-Acetyl-L-cysteine (Sigma-Aldrich, cat. A9165), 10 mM nicotinamide (Sigma-Aldrich, cat. N0636), 1X B-27 supplement (Thermo Fisher Scientific, cat. 17504044), 1X N-2 supplement (Thermo Fisher Scientific, cat. 17502048), and 10 microM Y-27632 dihydrochloride (Tocris Bioscience, cat. 1254). The 876862-298-R-J1-PDC was cultured in 6E media, which includes all 6B/Colon 1A media components plus 50% L-WRN conditioned media (ATCC, cat. CRL-3276), 50 ng/mL recombinant human EGF recombinant protein (hEGF; Thermo Fisher Scientific, cat. PHG0311), 10 ng/mL recombinant human fibroblast growth factor 10 (hGFG-10; PeproTech, cat. 100-26), 1 ng/mL recombinant human fibroblast growth factor 2 (hFGF-2; PeproTech, cat. 100-18B), and 1 µM prostaglandin E2 (PGE2; Tocris, cat. 2296). The 227483-062-R1-J1-PDC line was cultured in Panc media, containing all 6E components except hFGF-2, with the addition of 500 nM SB-431542 (Selleckchem, cat. S1067) and 10 nM gastrin (Tocris, cat. 3006). […]
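Also: compound exposure lasted seven days before the viability readout.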
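For viability, T/C in this document: 100% = DMSO vehicle control wells.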

CCCS(=O)(=O)Nc1ccc(F)c(C(=O)c2c[nH]c3ncc(-c4ccc(Cl)cc4)cc23)c1F + CN1CCN(c2cc(C(=O)Nc3cc4cc(-c5cnn(C)c5)ccc4cn3)ccn2)CC1
IC50 (second compound 0.0316 µM): > 10000 nM
IC50 (second compound 0.1 µM): > 10000 nM
IC50 (second compound 0.316 µM): < 31.6 nM
IC50 (second compound 1 µM): < 31.6 nM
IC50 (second compound 3.16 µM): < 31.6 nM
IC50 (second compound 10 µM): < 31.6 nM
viability, T/C (second compound 0.0316 µM, first compound 0.0316 µM): 80.5%
viability, T/C (second compound 0.0316 µM, first compound 0.1 µM): 86.1%
viability, T/C (second compound 0.0316 µM, first compound 0.316 µM): 94.8%
viability, T/C (second compound 0.0316 µM, first compound 1 µM): 90.1%
viability, T/C (second compound 0.0316 µM, first compound 3.16 µM): 82.4%
viability, T/C (second compound 0.0316 µM, first compound 10 µM): 58.7%
viability, T/C (second compound 0.1 µM, first compound 0.0316 µM): 83.6%
viability, T/C (second compound 0.1 µM, first compound 0.1 µM): 65.8%
viability, T/C (second compound 0.1 µM, first compound 0.316 µM): 75.8%
viability, T/C (second compound 0.1 µM, first compound 1 µM): 70.2%
viability, T/C (second compound 0.1 µM, first compound 3.16 µM): 68.9%
viability, T/C (second compound 0.1 µM, first compound 10 µM): 54.8%
viability, T/C (second compound 0.316 µM, first compound 0.0316 µM): 26.6%
viability, T/C (second compound 0.316 µM, first compound 0.1 µM): 27.3%
viability, T/C (second compound 0.316 µM, first compound 0.316 µM): 30.2%
viability, T/C (second compound 0.316 µM, first compound 1 µM): 27.2%
viability, T/C (second compound 0.316 µM, first compound 3.16 µM): 29.8%
viability, T/C (second compound 0.316 µM, first compound 10 µM): 18.3%
viability, T/C (second compound 1 µM, first compound 0.0316 µM): 0.16%
viability, T/C (second compound 1 µM, first compound 0.1 µM): 0.29%
viability, T/C (second compound 1 µM, first compound 0.316 µM): 0.14%
viability, T/C (second compound 1 µM, first compound 1 µM): 0.13%
viability, T/C (second compound 1 µM, first compound 3.16 µM): 1.03%
viability, T/C (second compound 1 µM, first compound 10 µM): 0.09%
viability, T/C (second compound 3.16 µM, first compound 0.0316 µM): 0.1%
viability, T/C (second compound 3.16 µM, first compound 0.1 µM): 0.48%
viability, T/C (second compound 3.16 µM, first compound 0.316 µM): 0.12%
viability, T/C (second compound 3.16 µM, first compound 1 µM): 0.91%
viability, T/C (second compound 3.16 µM, first compound 3.16 µM): 0.09%
viability, T/C (second compound 3.16 µM, first compound 10 µM): 0.51%
viability, T/C (second compound 10 µM, first compound 0.0316 µM): 0.14%
viability, T/C (second compound 10 µM, first compound 0.1 µM): 1.01%
viability, T/C (second compound 10 µM, first compound 0.316 µM): 0.7%
viability, T/C (second compound 10 µM, first compound 1 µM): 2.8%
viability, T/C (second compound 10 µM, first compound 3.16 µM): 0.19%
viability, T/C (second compound 10 µM, first compound 10 µM): 0.29%
